Measurements published in patent US20080221104A1, “SOLUBLE EPOXIDE HYDROLASE INHIBITORS FOR THE TREATMENT OF RHEUMATOID ARTHRITIS” (Arete Therapeutics, Inc., priority 2006, published 2008).

Legend:
[1] = Pharmacokinetic study in mice; format: in vivo; details: mouse plasma; for MRT: read-out: mean resident time (MRT)
Experimental: All animals were weighed prior to dose administration. […].
Blood (˜0.5 mL) was collected by cardiac puncture at sacrifice and transferred into vacutainer tubes containing sodium heparin at the time points outlined (See FIG. 3). After collection, the blood samples were centrifuged at approximately 1000×g at 2-8° C. for approximately 15 minutes. Each plasma specimen was collected, aliquoted into 2 microcentrifuge tubes, and stored at about −20° C. until analysis by LC/MS (liquid chromatography/mass spectrometry).
The quantitation method for pharmacokinetics is summarized as follows:
To prepare calibration standards for quantitation, the working standard was diluted 1 in 100 into rat plasma to 5 μg/mL (5 μL+495 μL), then diluted further with the same medium by 3-fold serial dilution. A total of seven dilutions were performed yielding eight calibration standards ranging from 2.29 to 5000 ng/mL. Calibration standards 3, 5 and 7 were used as the low, mid and high QC samples, respectively.
Calibration standards, QC samples and study samples were prepared for HPLC injection by precipitating plasma (25 μL) with 3× volumes (75 μL) of ice cold Internal Standard Solution. Following centrifugation at 6100 g for 30 minutes, 40 μL of each supernatant was transferred to a deep-well microplate and diluted with 200 μL of 0.2% formic acid in water.

IL-6 = experiment: LPS-induced cytokine production in mice (plasma IL-6); format: in vivo, mice (C57-B6)
Source text: Mouse Model of Inflammation Supporting Arthritis Model: Study of effect of Treatments on LPS-Induced Cytokine Production Mice (C57-B6 mice, ˜7-8 wks, male, Charles River Labs, 22-28 g) were quarantined and examined daily during 72 hr quarantine period. Any sign of clinical distress, disease, or injury were noted on a daily basis. […] Accepted mice were transferred to routine maintenance and housed at 5 per cage. Each mouse was identified by an ear tag. The vehicle or pharmaceutically acceptable carrier for test compounds was 20% hydroxypropyl-beta-cyclodextrin for subcutaneous and interperoneal routes (Groups 6-9). For Groups 1-5, the “Vehicle” as used in this study is 0.1% Tween 80 and 1% carboxymethylcellulose (CMC). The 0.1% Tween 80 and 1% carboxymethylcellulose (CMC) was the Vehicle used in the mice in Groups 1 and 2. The compounds were administered with pre-formulated material at a dose of 0.2 mL for 25 g mouse (8.0 mL per kg body weight). […] At the initiation of the study (T=0) animals were weighed and administered with test material or Vehicle. Five 5 mice per treatment per time point group were completed. At the first time point (T=24 hours) the animals were administered with test material or Vehicle again as above. [0.2 mL for 25 g mouse (8.0 mL per kg body weight)] [table] At the time point T=25 hour, animals were administered 2 mL/kg of an LPS solution (5 mg/mL, lipopolysaccharide from Escherichia coli 0111:B4; dissolved in sterile PBS) or vehicle by intraperitoneal route. At this time point, Group 1 mice received Vehicle only as the non-LPS control and Groups 2 through 9 mice received LPS and Vehicle (Group 2) or Test Materials. At the time point T=30 hour, mice in Groups 1 through 9 were anesthetized and exsanguinated into EDTA-treated microtainer tubes. […] The plasma samples was stored at −20° C. until testing. Plasma IL-6 was measured by Luminex cytokine multiplex measurements using beads supplied by Linco.

DBA/1 mice = experiment: Collagen induced rheumatoid arthritis (RA) mouse model; format: in vivo, mice (DBA/1)
Experimental: Mice were immunized with collagen as follows. Collagen (Bovine Type II, 0.05M in acetic acid) was emulsified with CFA (Complete Freund's Adjuvant) by mixing one volume of CFA with an equal amount of the collagen solution. Mixing was continued until a stable, stiff emulsion resulted. To ascertain the desired stability of the emulsion, 1 drop of emulsion was added into a water-filled beaker. The emulsion was considered stable if it remained in the water as a solid. For the collagen IP boost on day 21, the Bovine Type II collagen (Condrex, Seattle, Wash.) was thawed at 4° C. overnight and then mixed 1:1 with the PBS supplied. 200 μL was injected IP into each mouse. Four groups of 10 mice (40 total), aged 7-8 weeks were acclimated a minimum of 5 days prior to start of the study. Animals were housed 5 per cage in microisolators in a 12:12 light dark cycle (all work was done in a BioBubble Hood™). Standard maintenance mouse chow diet (Harlan Teklad 8640) was supplied. Water and food were given ad libitum. High CIA-susceptible DBA/1 mice were utilized which generally develop arthritis 3-5 weeks after immunization with Bovine type TI collagen. Fully developed arthritis, including red and swollen paws, was to be observed 3-5 days after the onset. […] Time of dosing was approximately the same each day following through the end of the study. The mice groups were fed as follows through the duration of the experiment: Group 1) Chow (Referred to as “Vehicle” in FIG. 1). Group 2) Chow (Positive Control-Dexamethasone (DEXA))-Dosed as appropriate. […] The dosing solutions were made on a twice weekly basis and stored at 4° C. between dosing. Measurements were taken twice weekly from boost and included: body weight measurement and Arthritic Score on a scale of 0 to 4. Arthritic score 0-4 (0=normal; 1=1-2 digit swollen and mildly red; 2=redness and swelling in mid-foot or ankle; 3=>3 paws and ankle joints swollen and very red); 4=all joints swollen and animal is not using the paw. At onset of arthritis paw measurements were taken with calipers. A baseline of caliper measurements was taken when all visual assessments were zero. Measurements were taken with an electronic caliper that entered measurements directly to an excel spreadsheet. The study was terminated on Day 42 from initial collagen injection. Cardiac blood was taken from each mouse and plasma prepared in EDTA within 15 min of collection. Plasma was frozen at −20° C. for future analysis of cytokines and eicosatrienoic acids. All left hind paws were removed and stored in formalin for future histology.

sEH = biological target: T1, sEH (Homo sapiens, UniProt P34913); experiment: sEH inhibition, fluorescent CMNPC substrate assay (IC50 determination); format: biochemical; details: for inhibition at 0.05 µM: tested at 50 nM
T1 sequence (P34913 1-555): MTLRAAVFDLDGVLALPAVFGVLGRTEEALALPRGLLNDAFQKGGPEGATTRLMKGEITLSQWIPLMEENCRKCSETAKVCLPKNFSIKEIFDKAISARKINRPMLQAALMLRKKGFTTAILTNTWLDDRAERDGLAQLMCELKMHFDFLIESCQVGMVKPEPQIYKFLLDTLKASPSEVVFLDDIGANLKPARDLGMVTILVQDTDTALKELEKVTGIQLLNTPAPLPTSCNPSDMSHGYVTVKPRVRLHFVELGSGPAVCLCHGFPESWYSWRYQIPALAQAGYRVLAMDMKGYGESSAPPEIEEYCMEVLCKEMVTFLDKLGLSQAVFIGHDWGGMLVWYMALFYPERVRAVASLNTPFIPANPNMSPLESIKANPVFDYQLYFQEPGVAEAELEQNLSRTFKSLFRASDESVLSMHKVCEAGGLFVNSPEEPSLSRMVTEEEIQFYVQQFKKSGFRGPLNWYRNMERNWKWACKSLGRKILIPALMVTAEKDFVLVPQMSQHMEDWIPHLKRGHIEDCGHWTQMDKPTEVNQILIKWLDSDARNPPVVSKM
Experimental: The IC50s for each inhibitor were determined according to the following procedure:
The substrate for the reaction was:
Therefore, well A2 would refer to a well in the first row and second column of the plate.
In a black 96 well plate, all the wells are filled with 150 μL of buffer A (Buffer A: Bis/Tris HCl, 25 mM, pH 7.0 plus 0.1 mg/mL BSA). DMSO (2 microliters) was added in well A2 and A3, and then was added 2 μL of inhibitor solution in A1 and A4 through A12. […] The plate was incubated for 5 minutes in the plate reader at 30° C. During incubation, the working solution of substrate was prepared by mixing 3.68 mL of buffer A with 266 μL of 0.5 mM substrate solution. At t=0, 30 μL of working substrate solution was added and readings were started ([S]final: 5 μM). […] The velocities were used to analyze and calculate the IC50s.

[2] = 50 mg/kg PO once a day (QD), Day 20 to Day 27
[3] = 50 mg/kg PO twice a day (BID), Day 28 to Day 42

| Cmax [1] [ng/mL] | area under the curve (AUC), fold higher than COMPOUND #2 [1] | MRT [1] [h] | IC50 (sEH; read-out: IC50 against sEH) [nM] | inhibition at 0.05 µM (sEH) [%] | SMILES | inhibition of IL-6 release in response to LPS (IL-6; administered SC, 50 mg/kg) [%] | inhibition of IL-6 release in response to LPS (IL-6; given orally, 50 mg/kg) [%] | arthritis score vs Vehicle (DBA/1 mice; [2]) | arthritis score vs Vehicle (DBA/1 mice; [3]) | inhibition of IL-6 release in response to LPS (IL-6; PO, 100 mg/kg, relative to the vehicle control) [%] |
| --- | --- | --- | --- | --- | --- | --- | --- | --- | --- | --- |
| 9920 | over 20 fold | 5.6 | 9 | 82 | O=C(Nc1ccc(C(F)(F)F)cc1)Nc1cccc(C(=O)N2CCOCC2)c1 [Compound 1, 1-[3-(morpholine-4-carbonyl)-phenyl]-3-(4-trifluoromethyl-phenyl)-urea] | 94 | 55 | no significant difference from Vehicle | significantly decreased the arthritic score |  |
| 6490 |  | 1.3 |  |  | CC(=O)N1CCC(NC(=O)NC23CC4CC(CC(C4)C2)C3)CC1 [Compound 2, 1-(1-acetylpiperidn-4-yl)-3-(adamant-1-yl) urea] | 51 | 51 | not significantly different from Vehicle treated animals | not significantly different from Vehicle treated animals |  |
|  |  |  |  | 94 | CS(=O)(=O)N1CCC(NC(=O)NC23CC4CC(CC(C4)C2)C3)CC1 [Compound 5, 1-[1-(methylsulfonyl)piperidin-4-yl]-3-(adamant-1-yl) urea] |  |  |  |  |  |
|  |  |  |  |  | Fc1ccc(-c2nc3n(c2-c2ccncc2)CCS3)cc1 [SKF86002, reference compound] |  |  |  |  | 66 |
